Like-named read-outs stand apart in the source and are kept apart here. Values belong to the compound of their own block, whether it stands above or below them.
Legend:
TC32 cells = assay: Cell viability (CellTiter-Glo) in TC32 cells expressing sgRNA (TP53-KO vs control); format: cell-based; conditions: 3 days, Cell Titer Glo
Procedure: (§1) Cells were plated in 384-well culture-treated plates and allowed to settle overnight. After drug treament and appropriate incubation time, cell viability was assessed using the CellTiter-Glo Luminescent Cell Viability Assay (Promega). Luminescence was read on a Fluostar Omega Reader (BMG Labtech).

[1] = test system: Ewing Sarcoma, AML, multiple myeloma and rhabdoid cell lines; assay: Cell viability (CellTiter-Glo) in individual cell line panels; format: cell-based; conditions: Ewing Sarcoma lines and TC32 cells, 3 days
Procedure: as §1

full-length USP7 [2] = target: T1, full-length USP7 (Homo sapiens, UniProt Q93009); assay: Ub-AMC enzymatic assay, full-length USP7, 6 h pre-incubation; format: biochemical; conditions: for IC50: Ub-AMC, read-out: IC50
T1 construct: The constructs encoding USP7 full length (amino acids 1–1102) and catalytic domain (208–560); inferred from Ni-NTA purification; made in house; host or cells: E. coli BL21 (DE3)
T1 sequence (Q93009 whole entry, the tested form may be a part): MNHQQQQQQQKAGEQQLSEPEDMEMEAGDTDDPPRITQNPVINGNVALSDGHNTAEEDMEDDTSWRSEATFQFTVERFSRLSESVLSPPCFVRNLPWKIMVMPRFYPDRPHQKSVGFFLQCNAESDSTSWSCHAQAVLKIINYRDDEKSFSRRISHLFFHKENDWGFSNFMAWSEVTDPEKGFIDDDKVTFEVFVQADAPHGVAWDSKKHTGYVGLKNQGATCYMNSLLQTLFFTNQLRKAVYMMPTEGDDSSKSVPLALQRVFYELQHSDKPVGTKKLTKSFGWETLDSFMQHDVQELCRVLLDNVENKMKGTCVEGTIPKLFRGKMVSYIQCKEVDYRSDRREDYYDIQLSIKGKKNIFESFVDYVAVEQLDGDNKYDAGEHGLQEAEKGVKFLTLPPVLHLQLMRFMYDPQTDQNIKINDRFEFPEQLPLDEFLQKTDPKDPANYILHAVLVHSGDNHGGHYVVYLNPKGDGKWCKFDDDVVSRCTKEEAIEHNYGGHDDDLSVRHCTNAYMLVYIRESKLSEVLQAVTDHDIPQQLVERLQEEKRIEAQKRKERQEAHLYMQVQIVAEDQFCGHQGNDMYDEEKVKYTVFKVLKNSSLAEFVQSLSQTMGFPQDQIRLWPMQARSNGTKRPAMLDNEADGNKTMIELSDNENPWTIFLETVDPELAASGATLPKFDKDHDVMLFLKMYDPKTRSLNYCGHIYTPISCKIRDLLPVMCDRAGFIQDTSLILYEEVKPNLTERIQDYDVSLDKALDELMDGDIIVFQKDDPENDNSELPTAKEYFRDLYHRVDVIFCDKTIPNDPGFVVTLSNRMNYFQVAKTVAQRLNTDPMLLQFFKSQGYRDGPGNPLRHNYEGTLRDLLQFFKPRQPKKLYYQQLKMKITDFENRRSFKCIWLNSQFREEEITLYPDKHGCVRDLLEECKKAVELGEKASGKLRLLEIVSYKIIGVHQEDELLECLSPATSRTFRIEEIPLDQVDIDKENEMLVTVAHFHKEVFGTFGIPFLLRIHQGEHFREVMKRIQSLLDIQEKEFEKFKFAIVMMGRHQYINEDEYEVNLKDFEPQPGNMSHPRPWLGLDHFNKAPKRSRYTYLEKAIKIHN
Procedure: Full length USP7 was tested for its activity in Ubiquitin-AMC assay in presence or absence of inhibitors. USP7 (5 nM) was pre-incubated for 6 hours at room temperature with different concentrations of inhibitors or DMSO as a control in 50 mM HEPES pH 7.5, 0.5 mM EDTA, 11 uM ovalbumin, and 5 mM DTT. Ubiquitin-AMC (Boston Biochem) was then added to a final concentration of 500 nM. The initial rate of the reaction was measured by collecting fluorescence data at one minute intervals over 30-minute period using a Clariostar fluorescence plate reader at excitation and emission wavelength of 345 and 445 nm respectively. The calculated initial rate values were plotted against inhibitor concentrations to determine IC50s. All the experimental data were plotted using Prism GraphPad. All assays for each compound were performed at least twice for each compound.

full-length USP7 [3] = target: T1, full-length USP7; assay: Ub-AMC time course assay for kinact / KI; format: biochemical
Procedure: To calculate the ki and kianct values for XL-9678-041, the procedure above was used, but different concentrations of inhibitor were incubated with USP7 for different time points (5 min - 3 hours) before adding Ubiquitin-AMC. To determine kobs, the time course curves were fit to the equation y = ymax(1 − exp(−kobs⋅x)). The kobs values were then plotted against the inhibitor concentrations and fit to the equation y = kinact/(1 + (ki/x)) to obtain the values for ki and kianct.
Supplementary Figure Captions
Figure S1: Full-length recombinant purified USP7 was pre-incubated with XL041 at the indicated concentrations for the indicated times, then Ub-AMC was added and fluorescence was monitored. Graphpad Prism software was used to calculate initial reaction velocity and derive KI / kinact values (bottom panel).
Figure S2: Mass spectra (left) and zero-charge mass spectra (right) of WT USP7 catalytic domain incubated for 4 hours with DMSO (top) or 2.5-fold molar excess XL058 (bottom). […]
Figure S5: MCF7 cells were transfected with the indicated pcDNA constructs for 48 hours, then treated with XL177A at the indicated concentration for 3 hours. Cells were lysed, and FLAG-USP7 target engagement was assessed with the DUB ABP HA-Ub-VS. Densitometry was performed using ImageStudio software and analyzed using Graphpad Prism. […]

USP7 catalytic domain = target: T2, USP7 catalytic domain (Homo sapiens, UniProt Q93009); assay: Intact MS / CE-MS labeling of purified USP7 catalytic domain; format: binding; conditions: 2.5-fold molar excess compound
T2 construct: catalytic domain (208–560) used were cloned as described; inferred from Ni-NTA purification; made in house; host or cells: E. coli BL21 (DE3)
T2 sequence (Q93009 208-560): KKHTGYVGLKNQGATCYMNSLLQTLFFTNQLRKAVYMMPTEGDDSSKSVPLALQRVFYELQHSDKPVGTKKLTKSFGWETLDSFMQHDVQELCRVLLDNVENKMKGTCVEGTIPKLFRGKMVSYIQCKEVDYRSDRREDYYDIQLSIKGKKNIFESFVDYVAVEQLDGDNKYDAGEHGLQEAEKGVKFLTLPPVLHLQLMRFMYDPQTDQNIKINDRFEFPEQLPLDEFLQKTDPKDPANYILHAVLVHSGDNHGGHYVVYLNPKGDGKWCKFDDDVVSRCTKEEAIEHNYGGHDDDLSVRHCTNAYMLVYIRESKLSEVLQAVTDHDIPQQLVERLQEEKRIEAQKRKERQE
Procedure: Purified USP7 catalytic domain was diluted to 20 μM in 10 μL labeling buffer (20 mM HEPES pH 7.5, 150 mM NaCl, 1 mM TCEP) and incubated for the indicated times with 50 μM (2.5×) compound. After incubation, samples were flash frozen in liquid nitrogen and stored at −80 °C until analysis.
Intact mass analysis was performed by injecting 5 µg USP7 catalytic domain onto a self-packed reversed phase column (1/32” O.D. × 500 um I.D., 5 cm of POROS 10R2 resin). After desalting, protein was eluted with an HPLC gradient (0–100% B in 4 minutes, A = 0.2 M acetic acid in water, B = 0.2 M acetic acid in acetonitrile, flow rate ~30 µL/min) into an LTQ ion trap mass spectrometer (ThermoFisher Scientific, San Jose, CA). Mass spectra were processed using MagTran1.03b2[52].
Peptides were desalted using SP3[53], dried by vacuum centrifugation, and reconstituted in 1% formic acid/50% acetonitrile with 100 mM ammonium acetate. Peptides were then analyzed by CE-MS using a ZipChip CE system and autosampler (908 Devices, Boston, MA) interfaced to a QExactive HF mass spectrometer (ThermoFisher Scientific, San Jose, CA). Peptide solution was loaded for 30 seconds, and the mass spectrometer was operated in data dependent mode and subjected the 5 most abundant ions in each MS scan (60k resolution, 3E6 target, lock mass enabled) to MS/MS (15k resolution, 1E5 target, 100 ms max inject time). […]

MCF7 cells = assay: 3' DGE RNA-seq transcriptional profiling; format: cell-based; design: log2FoldChange: concentration or dose not given beside the values; conditions: gene ABCA12; concentration 1
Procedure: The DGE RNA sequencing was performed following the published method[39],[40] with modifications as described below. MCF7 cells were seeded in a 384 well plate at 2500 cells per well, allowed to adhere for 24 hours, then treated with two doses in triplicate of XL177A, XL177B, Nutlin-3, or DMSO. After 24 hours of treatment, an EL405x plate washer (BioTek) was used to aspirate the media and wash once with PBS. Cells were lysed in the plate with 10 µl of lysis buffer (1x Qiagen TCL, 1% BME) for 5 minutes at room temperature, then stored at −80 °C. Automated liquid handling was performed with assistance from ICCB-Longwood Screening Facility. A BRAVO Automated Liquid Handling Platform (Agilent) was used for RNA extraction as follows. The lysate was mixed and 10 µl was transferred to a 384 well PCR plate. 28 µl of homemade SPRI[66] (solid-phase reversible immobilization) beads were added to the lysate and mixed. After 5 minutes, the beads were pulled down by placing the plate on a magnet, then the beads were washed twice with 80% ethanol. Beads were air dried for 1 minute, then 20 µl of nuclease free water was added, the plate was removed from the magnet, and the beads were resuspended. After 5 minutes, the plate was placed back on the magnet to pull down the beads. The supernatant was transferred to a fresh 384 well plate. RNA quantity was checked with the Qubit Fluorometer and RNA quality was assessed using the Agilent BioAnalyzer RNA 6000 Pico Kit. The BRAVO platform was again used to transfer 5 µl of supernatant was transferred to a fresh 384 well plate with RT master mix and 1 µl of barcoded E3V6NEXT adapters for reverse transcription and template switching. The plate was incubated for 90 minutes at 42 °C, then cDNA was pooled, purified with the QIAquick PCR purification kit. The full-length cDNA was treated with Exonuclease I to remove excess primers for 30 minutes at 37 °C then amplified x5 cycles with Advantage 2 PCR Enzyme System using the SINGV6 primer. The amplified full-length cDNA was purified with Agencourt AMPure XP magnetic beads and quantitated by Qubit Fluorometer. The sequencing library was prepared using the Nextera DNA kit following the manufacturer’s instructions. Briefly, 55 ng of cDNA was tagmented for 5 minutes at 55 °C then purified using Zymo DNA Clean & Concetrator-5 column, then amplified x7 cycles and purified using a 0.9x ratio of AMPure XP magnetic beads. The library size distribution was assessed by Agilent BioAnalyzer HS DNA Kit before it was quantified by qPCR and sequenced on an Illumina NextSeq at the Biopolymers Facility at Harvard Medical School.
The bcbio-nextgen single cell RNA-seq analysis pipeline (https://bcbio-nextgen.readthedocs.io/en/latest/) was used to deconvolve the well barcodes and convert reads to counts. Any detected barcode that differed by more than one base from an expected barcode was removed. Unique reads were identified using unique molecular identifiers (UMIs) in order to remove PCR duplicates. The reads remaining after these filters were aligned to the transcriptome (GRCh38) using RapMap[67]. The R package DESeq. 2 version 1.20.0 (R version 3.5.1) was used for differential expression analysis.

SMILES: CCc1c(-c2ccc3[nH]ncc3c2)cnc(N)c1-c1ccc(O)cc1 [GNE-6640]
differential response in TC32 TP53 knock out cells (TC32 cells): no differential
selectivity for TP53-WT versus TP53-mutant or TP53-KO cells [1]: showed little selectivity
selectivity for TP53-WT versus TP53-mutant or TP53-KO cells ([1]; listed as SB1_F_057): no differential response

SMILES: CN1CCN(CCC(=O)Nc2ccc3c(=O)n(CC4(O)CCN(C(=O)C(CCCNC(=O)c5ccc6cc7c(nc6c5)CCCC7)Cc5ccccc5)CC4)cnc3c2)CC1 (centres unmarked) [XL058]
IC50 (full-length USP7 [2]): 904 nM
labeling of USP7 catalytic domain by MS (USP7 catalytic domain): unable to label

SMILES: CN1CCN(CCC(=O)Nc2ccc3c(=O)n(CC4(O)CCN(C(=O)C(CCCNC(=O)c5ccc6c(Cl)c7c(nc6c5)CCCC7)Cc5ccccc5)CC4)cnc3c2)CC1 (centres unmarked) [XL112]
IC50 (full-length USP7 [2]): 5.9 nM

SMILES: COc1ccc(C2=N[C@@H](c3ccc(Cl)cc3)[C@@H](c3ccc(Cl)cc3)N2C(=O)N2CCNC(=O)C2)c(OC(C)C)c1 [nutlin3a]
log2FoldChange (MCF7 cells): 0.9473

Now from value to compound:

less potent than XL058 (full-length USP7 [2]): ~ 10 fold
less potent than XL112 (full-length USP7 [2]): ~ 1,000 fold
IC50 (full-length USP7 [2]; Table S1): 8130 nM
IC50 (full-length USP7 [2]): 8000 nM
SMILES: CN1CCN(CCC(=O)Nc2ccc3c(=O)n(CC4CCN(C(=O)C(CCCNC(=O)c5ccc6c(Cl)c7c(nc6c5)CCCC7)Cc5ccccc5)CC4)cnc3c2)CC1 (centres unmarked) [XL024]

IC50 (full-length USP7 [2]; Table S1): 152 nM
mode of inhibition (full-length USP7 [3]): irreversible mode of inhibition
kinact (full-length USP7 [3]; pre-incubation 5 min - 3 hours): 0.00373 s⁻¹
SMILES: CN1CCN(CCC(=O)Nc2ccc3c(=O)n(CC4(O)CCN(C(=O)CCCCNC(=O)c5ccc6c(Cl)c7c(nc6c5)CCCC7)CC4)cnc3c2)CC1 [XL041]
